# Article PMC6731142 (Cell, 2019)
# Bridge positions count the residues as written; N and C are the ends. Ends that are not written are not given here. * marks the point of attachment. Biotin = O=C1N[C@H]2[C@H](CS[C@H]2CCCCC(=O)*)N1
# B1: Biotin-GSGS-WaTx (N-terminal biotinylated Wasabi Receptor Toxin) (peptide)
# peptide: GSGSASPQQAKYCYEQCNVNKVPFDQCYQMCSPLERS
# modifications: biotin on the N-terminus; directed disulfide bonds C9-C27 and C13-C23 (WaTx numbering)
# Key:
# [1] = tested on: rat snake TRPA1 (rsTRPA1); details: ref Banzawa et al., 2014; McNamara et al., 2007; cited from earlier work
# [2] = tested on: mouse hindpaw; assay: Neurogenic inflammation: paw edema and Evan's Blue Dye extravasation; assay type: in vivo; details: intrathecally capsaicin ablated mice; AITC 0.75% v/v
# [3] = tested on: cultured rat trigeminal neurons; assay: CGRP release ELISA from cultured trigeminal neurons; assay type: cell-based; details: WaTx 10 μM
# [4] = tested on: mouse hindpaw; details: for Acute nocifensive behavior in capsaicin-ablated animals: intrathecally capsaicin ablated mice
# [5] = target: T1, hTRPA1 (Homo sapiens, UniProt O75762); assay: Single-channel cell-attached and excised-patch recordings of TRPA1 in HEK cells; assay type: cell-based; details: for Effect on divalent over monovalent cation selectivity: excised patches, AITC 50 μM, n = 3–7 patches/condition; for Effect on divalent over monovalent cation selectivity / Duration of evoked channel openings / Average latency to first channel opening: WaTx 100 nM; for Duration of evoked channel openings / Average latency to first channel opening: inside-out patches, AITC 10 μM; for Duration of evoked channel openings: Vh = −40 mV, n = 6–8 patches/treatment; for Average latency to first channel opening: n = 13–14 patches/treatment
# [6] = target: T1, hTRPA1; assay type: cell-based; details: human TRPA1-transfected HEK cells, whole-cell; mean ± SEM; p < 0.05 unpaired two-tailed t-test
# [7] = tested on: mouse hindpaw; assay: Thermal; assay type: in vivo; details: for Mechanical hypersensitivity in capsaicin-ablated animals: intrathecally capsaicin ablated mice, n = 6–8 mice/treatment; for Hypersensitivity to thermal and mechanical stimuli: wild-type mice, intraplantar injection
# [8] = target: T1, hTRPA1; assay type: binding; details: wild-type hTRPA1-transfected HEK293 membranes
# [9] = tested on: rat snake TRPA1 (rsTRPA1); assay: Whole-cell patch-clamp recordings of rat snake TRPA1 in transfected HEK cells; assay type: cell-based, Texas rat snake (Elaphe obsoleta lindheimeri)
# [10] = tested on: trigeminal sensory neurons; assay: Ca2+ imaging of cultured mouse trigeminal sensory neurons; assay type: cell-based
# [11] = tested on: human TRPA1; assay type: cell-based; details: WaTx 1 μM, whole-cell, n = 3–9 cells/construct
# [12] = tested on: rsTRPA1; assay type: binding, Texas rat snake (Elaphe obsoleta lindheimeri); details: gain-of-function mutant A627P
# [13] = target: human TRPA1, full-length wild type (human, UniProt O75762 1-1119); assay: BLI
# Chain of human TRPA1, full-length wild type (O75762 whole entry): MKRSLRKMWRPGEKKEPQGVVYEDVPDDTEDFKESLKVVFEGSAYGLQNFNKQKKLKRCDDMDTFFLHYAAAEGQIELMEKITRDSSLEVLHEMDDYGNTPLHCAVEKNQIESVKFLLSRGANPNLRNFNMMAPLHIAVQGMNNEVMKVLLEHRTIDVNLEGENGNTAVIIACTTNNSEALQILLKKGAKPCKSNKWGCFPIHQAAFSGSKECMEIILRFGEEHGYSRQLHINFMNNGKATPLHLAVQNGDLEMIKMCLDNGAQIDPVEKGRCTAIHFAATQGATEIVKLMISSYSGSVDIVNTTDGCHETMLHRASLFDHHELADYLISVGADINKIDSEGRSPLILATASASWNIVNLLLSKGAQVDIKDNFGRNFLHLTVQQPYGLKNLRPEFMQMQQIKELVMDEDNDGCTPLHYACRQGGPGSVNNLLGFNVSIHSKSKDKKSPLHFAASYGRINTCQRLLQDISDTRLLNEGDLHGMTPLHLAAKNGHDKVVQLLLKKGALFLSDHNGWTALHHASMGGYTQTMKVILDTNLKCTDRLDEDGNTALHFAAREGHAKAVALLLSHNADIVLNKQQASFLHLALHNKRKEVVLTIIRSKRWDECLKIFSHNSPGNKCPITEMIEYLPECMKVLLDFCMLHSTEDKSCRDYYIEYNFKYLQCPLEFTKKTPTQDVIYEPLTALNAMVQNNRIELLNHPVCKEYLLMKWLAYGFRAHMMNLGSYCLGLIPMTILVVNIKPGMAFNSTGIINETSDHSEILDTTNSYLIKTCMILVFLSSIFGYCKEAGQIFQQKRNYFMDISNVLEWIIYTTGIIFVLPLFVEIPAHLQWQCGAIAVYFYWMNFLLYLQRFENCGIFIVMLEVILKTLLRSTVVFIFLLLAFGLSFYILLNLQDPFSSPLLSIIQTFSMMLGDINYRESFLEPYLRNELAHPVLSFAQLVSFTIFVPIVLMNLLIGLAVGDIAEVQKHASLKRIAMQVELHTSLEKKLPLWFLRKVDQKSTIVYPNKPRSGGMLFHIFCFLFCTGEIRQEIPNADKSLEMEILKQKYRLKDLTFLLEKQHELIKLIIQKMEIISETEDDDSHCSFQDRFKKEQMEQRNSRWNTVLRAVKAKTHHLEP
# T1 sequence (O75762 whole entry): as above
molecule,measurement,setting,value
CCC(=N\O)/C(C)=C/c1ccc(F)cc1 [A 967079],Inhibitor effectiveness against rsTRPA1,[1],ineffective
"C=CCN=C=S [AITC, allyl isothiocyanate, reference compound]",Paw swelling in capsaicin-ablated animals,[2],produced swelling
same,"CGRP release, physiological extracellular Ca2+","[3]; 2mM extracellular Ca2+, AITC 100 μM, 5 min at RT",promoted robust CGRP release
same,Acute nocifensive behavior in capsaicin-ablated animals,[4],not acute nocifensive behavior
same,Effect on divalent over monovalent cation selectivity,[5],small but significant increase in divalent cation selectivity
same,Duration of evoked channel openings,[5],≤ 5 ms
same,Average latency to first channel opening,[5],dramatically shortened
same,τoff (reversal of membrane currents upon washout),[6],27 ± 5 s
same,Mechanical hypersensitivity in capsaicin-ablated animals,[7],developed mechanical hypersensitivity (albeit with a delayed onset)
same,Hypersensitivity to thermal and mechanical stimuli,[7],substantial and long-lasting hypersensitivity
CC(C)c1ccc(NC(=O)Cn2cnc3c2c(=O)n(C)c(=O)n3C)cc1 [HC 030031],Inhibitor effectiveness against rsTRPA1,[1],effective
"WaTx (Biotin-GSGSASPQQAKYCYEQCNVNKVPFDQCYQMCSPLERS; disulfide 13-31, 17-27; not fully specified)","CGRP release, raised extracellular Ca2+",[3]; 20mM extracellular Ca2+ (10-fold),able to promote CGRP release
same,Binding of hTRPA1 membranes,[8],Robust binding
same,Nocifensive (pain-related) behavior,"[4]; 20 μL intraplantar to hindpaw, wild-type mice, scored 20 min","vigorous, dose-dependent nocifensive (pain-related) behavior"
same,Nocifensive and c-Fos responses in TRPA1-deficient mice,[4]; TRPA1−/− mice,not observed
same,c-Fos immunoreactivity in superficial laminae of spinal cord dorsal horn,"[4]; after hindpaw injection, wild-type mice, n = 22–39 sections/group",induction of c-Fos immunoreactivity
same,Acute nocifensive behavior in capsaicin-ablated animals,[4],lacked acute nocifensive behavior
same,Toxin sensitivity of rsTRPA1 A627P,"[9]; WaTx 5 μM, whole-cell",sufficient to confer toxin sensitivity
same,Sensitivity of rat snake TRPA1 to toxin,"[9]; whole-cell patch clamp, n = 4–12 HEK cells/condition",insensitive
same,Effect on neurons from TRPA1-deficient animals,"[10]; WaTx 5 μM, TRPA1−/− mouse trigeminal neuron cultures",no effect
same,"Selectivity of neuron excitation, wild-type mice","[10]; saturating dose 5μM WaTx, AITC 50μM",excited only the cohort sensitive to a selective dose of AITC
same,Activation of channels in cell-attached mode,"[5]; cell-attached HEK cell patches, n = 12",WaTx-evoked responses in the on-cell patch configuration
same,Activation of channels in excised patches,"[5]; excised outside-out / inside-out patches, bath application",activity was observed in either configuration
same,Effect on divalent over monovalent cation selectivity,[5],largely abolished
same,Duration of evoked channel openings,[5],≤ 20 ms
same,Average latency to first channel opening,[5],"indistinguishable from that of basal, spontaneous events"
same,τoff (reversal of membrane currents upon washout),[6],4.6 ± 1.2 s
same,"Toxin sensitivity of hTRPA1 mutants P622A, M634L, T646P",[11],abrogated toxin sensitivity
same,Binding of rsTRPA1 A627P membranes,[12],did display binding
same,Mechanical hypersensitivity in capsaicin-ablated animals,[7],failed to exhibit any signs of mechanical hypersensitivity
same,Hypersensitivity to thermal and mechanical stimuli,[7],substantial and long-lasting hypersensitivity
B1,Kd,[13],0.33 pM
same,koff,[13],7.13e-06 s⁻¹
